Our source for the Activity and Km values is ChEMBL document CHEMBL2074223 (Mol Pharmacol, 2000).

Holding throughout (type): functional, cell-based
In data set [1] the target is T1, Bile salt export pump (Mus musculus, UniProt Q9QY30).
T1 sequence (Q9QY30 whole entry): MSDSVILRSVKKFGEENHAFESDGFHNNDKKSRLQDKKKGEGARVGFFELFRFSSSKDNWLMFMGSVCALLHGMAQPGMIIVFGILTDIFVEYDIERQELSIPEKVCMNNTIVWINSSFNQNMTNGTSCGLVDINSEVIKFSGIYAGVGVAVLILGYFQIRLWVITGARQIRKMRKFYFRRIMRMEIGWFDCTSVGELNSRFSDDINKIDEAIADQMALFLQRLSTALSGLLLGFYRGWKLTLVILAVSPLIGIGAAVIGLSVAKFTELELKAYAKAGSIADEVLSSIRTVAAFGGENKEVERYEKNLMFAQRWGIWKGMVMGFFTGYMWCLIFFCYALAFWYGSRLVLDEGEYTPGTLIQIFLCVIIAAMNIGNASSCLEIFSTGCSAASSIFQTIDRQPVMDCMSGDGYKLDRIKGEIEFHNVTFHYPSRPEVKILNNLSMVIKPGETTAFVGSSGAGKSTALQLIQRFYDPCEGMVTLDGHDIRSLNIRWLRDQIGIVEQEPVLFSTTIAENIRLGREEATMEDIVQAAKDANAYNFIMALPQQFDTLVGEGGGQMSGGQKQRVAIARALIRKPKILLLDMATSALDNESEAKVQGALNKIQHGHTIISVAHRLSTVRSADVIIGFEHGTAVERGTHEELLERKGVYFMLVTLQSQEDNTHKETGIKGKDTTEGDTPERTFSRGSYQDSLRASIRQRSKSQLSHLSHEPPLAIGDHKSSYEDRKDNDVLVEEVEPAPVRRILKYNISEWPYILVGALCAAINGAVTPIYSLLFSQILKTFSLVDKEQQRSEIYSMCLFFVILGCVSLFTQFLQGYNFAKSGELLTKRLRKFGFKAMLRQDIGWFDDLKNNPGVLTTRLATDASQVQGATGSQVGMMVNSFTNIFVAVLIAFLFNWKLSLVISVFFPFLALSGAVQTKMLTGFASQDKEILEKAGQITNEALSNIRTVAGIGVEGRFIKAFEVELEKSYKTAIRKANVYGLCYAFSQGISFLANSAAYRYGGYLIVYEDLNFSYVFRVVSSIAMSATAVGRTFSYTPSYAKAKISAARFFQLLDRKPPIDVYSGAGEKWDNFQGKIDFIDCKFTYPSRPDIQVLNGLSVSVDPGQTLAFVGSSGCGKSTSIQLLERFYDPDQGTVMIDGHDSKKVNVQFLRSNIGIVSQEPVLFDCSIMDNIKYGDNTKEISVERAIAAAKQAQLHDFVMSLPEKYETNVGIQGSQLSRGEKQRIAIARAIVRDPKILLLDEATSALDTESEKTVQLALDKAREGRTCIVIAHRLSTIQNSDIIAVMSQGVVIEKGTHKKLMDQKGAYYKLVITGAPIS
As to the kind of experiment: (§1) TP_TRANSPORTER: intracellular accumulation in Bsep-expressing LLC-PK1 cells. As to conditions: pig.

The target of data set [2] is T2, ATP-dependent translocase ABCB1 (Homo sapiens, UniProt P08183). As to the kind of experiment: (§2) TP_TRANSPORTER: intracellular accumulation in MDR1-expressing LLC-PK1 cells. As to conditions: pig.
For data set [3], the target named is T2, ATP-dependent translocase ABCB1. As to the kind of experiment: TP_TRANSPORTER: increase in Calcein-AM intracellular accumulation (Calcein-AM: 1 uM, Ditekiren: 20 uM) in MDR1-expressing LLC-PK1 cells. As to conditions: pig, llc-pk1, 20 µM.
The target of data set [4] is T1, Bile salt export pump. As to the kind of experiment: TP_TRANSPORTER: increase in Calcein-AM intracellular accumulation (Calcein-AM: 1 uM, Ditekiren: 20 uM) in Bsep-expressing LLC-PK1 cells. The note with it: pig, llc-pk1, 20 µM.
Data set [5] has as its system CC[C@]1(O)C[C@@H]2CN(CCc3c([nH]c4ccccc34)[C@@](C(=O)OC)(c3cc4c(cc3OC)N(C)[C@H]3[C@@](O)(C(=O)OC)[C@H](OC(C)=O)[C@]5(CC)C=CCN6CC[C@]43[C@@H]65)C2)C1. The data set is described as §2.
For data set [6], the target named is T1, Bile salt export pump. As to the kind of experiment: TP_TRANSPORTER: increase in Calcein-AM intracellular accumulation (Calcein-AM: 1 uM, Reserpine: 20 uM) in Bsep-expressing LLC-PK1 cells. As to conditions: pig, llc-pk1, 20 µM.
Substrate in data set [7]: CC[C@]1(O)C[C@@H]2CN(CCc3c([nH]c4ccccc34)[C@@](C(=O)OC)(c3cc4c(cc3OC)N(C)[C@H]3[C@@](O)(C(=O)OC)[C@H](OC(C)=O)[C@]5(CC)C=CCN6CC[C@]43[C@@H]65)C2)C1
Described as §1.

T2 sequence (P08183 whole entry): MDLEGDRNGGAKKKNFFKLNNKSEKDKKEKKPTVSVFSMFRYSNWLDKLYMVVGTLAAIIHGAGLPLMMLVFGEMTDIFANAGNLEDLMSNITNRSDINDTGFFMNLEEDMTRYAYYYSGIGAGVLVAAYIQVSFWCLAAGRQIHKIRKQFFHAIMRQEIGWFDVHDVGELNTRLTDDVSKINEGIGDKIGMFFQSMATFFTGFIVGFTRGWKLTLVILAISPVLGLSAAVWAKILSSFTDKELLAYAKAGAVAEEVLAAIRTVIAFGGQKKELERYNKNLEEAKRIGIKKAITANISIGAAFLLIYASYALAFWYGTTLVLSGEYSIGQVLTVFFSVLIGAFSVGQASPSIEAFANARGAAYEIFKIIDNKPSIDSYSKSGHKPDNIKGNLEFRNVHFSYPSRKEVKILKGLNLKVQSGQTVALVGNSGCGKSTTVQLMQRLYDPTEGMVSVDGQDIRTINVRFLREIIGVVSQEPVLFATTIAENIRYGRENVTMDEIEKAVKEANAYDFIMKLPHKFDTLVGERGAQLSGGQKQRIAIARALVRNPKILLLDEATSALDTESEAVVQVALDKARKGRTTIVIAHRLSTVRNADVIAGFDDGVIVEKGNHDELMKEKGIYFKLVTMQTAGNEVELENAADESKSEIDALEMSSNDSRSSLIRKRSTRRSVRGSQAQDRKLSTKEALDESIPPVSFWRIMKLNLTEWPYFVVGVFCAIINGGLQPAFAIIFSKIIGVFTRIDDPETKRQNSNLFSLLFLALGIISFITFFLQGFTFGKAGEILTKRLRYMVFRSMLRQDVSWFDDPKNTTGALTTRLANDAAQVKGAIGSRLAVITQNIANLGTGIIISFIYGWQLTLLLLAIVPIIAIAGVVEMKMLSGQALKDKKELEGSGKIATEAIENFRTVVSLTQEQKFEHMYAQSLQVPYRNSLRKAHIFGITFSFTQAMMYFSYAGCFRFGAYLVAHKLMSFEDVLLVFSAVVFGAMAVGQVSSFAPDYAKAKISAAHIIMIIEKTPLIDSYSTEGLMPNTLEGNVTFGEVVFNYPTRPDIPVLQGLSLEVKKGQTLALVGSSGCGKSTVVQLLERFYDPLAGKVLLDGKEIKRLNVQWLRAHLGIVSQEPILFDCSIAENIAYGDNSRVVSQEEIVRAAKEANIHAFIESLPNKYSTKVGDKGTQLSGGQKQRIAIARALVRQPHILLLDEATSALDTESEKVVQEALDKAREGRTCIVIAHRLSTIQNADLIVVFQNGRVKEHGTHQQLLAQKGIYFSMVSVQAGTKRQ

Regarding `CC(=O)OCOC(=O)CN(CC(=O)OCOC(C)=O)Cc1c(OC(C)=O)ccc2c1Oc1c(ccc(OC(C)=O)c1CN(CC(=O)OCOC(C)=O)CC(=O)OCOC(C)=O)C21OC(=O)c2ccccc21`, the Activity result (on Bile salt export pump [1]; in data set [2]) was “substrate [+]” throughout.

Consider `COc1cccc2c1C(=O)c1c(O)c3c(c(O)c1C2=O)C[C@@](O)(C(C)=O)C[C@@H]3O[C@H]1C[C@H](N)[C@H](O)[C@H](C)O1` [DAUNORUBICIN], for which the values for the Activity result (at Bile salt export pump [1]; in data set [2]) were “is not a substrate [-]” and “substrate [+]”, respectively.

Regarding `CC[C@H](C)[C@H](NC(=O)[C@@H](C[C@H](O)[C@H](CC(C)C)NC(=O)[C@H](Cc1c[nH]cn1)N(C)C(=O)[C@H](Cc1ccccc1)NC(=O)[C@@H]1CCCN1C(=O)OC(C)(C)C)C(C)C)C(=O)NCc1ccccn1`, the Activity entry in data set [3] was “is not an inhibitor [-]”; at Bile salt export pump [4], “inhibitor [+]”.

On to `COC(=O)c1ccccc1-c1c2ccc(=N)cc-2oc2cc(N)ccc12.Cl` [RHODAMINE123], for which the Activity result at Bile salt export pump [1] was “is not a substrate [-]”; in data set [2] it was “substrate [+]”.

As for `C[C@H]1O[C@@H](O[C@H]2[C@@H](O)C[C@H](O[C@H]3[C@@H](O)C[C@H](O[C@H]4CC[C@@]5(C)[C@H](CC[C@@H]6[C@@H]5C[C@@H](O)[C@]5(C)[C@@H](C7=CC(=O)OC7)CC[C@]65O)C4)O[C@@H]3C)O[C@@H]2C)C[C@H](O)[C@@H]1O` [DIGOXIN], on Bile salt export pump [1], the Activity entry was “is not a substrate [-]”.

For the molecule `CC[C@]1(O)C[C@H]2CN(CCc3c([nH]c4ccccc34)[C@@](C(=O)OC)(c3cc4c(cc3OC)N(C=O)[C@H]3[C@@](O)(C(=O)OC)[C@H](OC(C)=O)[C@]5(CC)C=CCN6CC[C@]43[C@@H]65)C2)C1` [VINCRISTINE], the Activity entry on Bile salt export pump [1] is “is not a substrate [-]”; in data set [2], “substrate [+]”.

For the molecule “ATP-dependent translocase ABCB1 (Homo sapiens)”, the Michaelis constant (Km) in data set [5] worked out at 99.4 µM.

As to `COC(=O)[C@H]1[C@H]2C[C@@H]3c4[nH]c5cc(OC)ccc5c4CCN3C[C@H]2C[C@@H](OC(=O)c2cc(OC)c(OC)c(OC)c2)[C@@H]1OC` [RESERPINE], on Bile salt export pump [6], the Activity result was “inhibitor [+]”.

In the case of `CC(=O)O[C@H]1C(=O)[C@@]2(C)[C@H]([C@H](OC(=O)c3ccccc3)[C@]3(O)C[C@H](OC(=O)[C@H](O)[C@@H](NC(=O)c4ccccc4)c4ccccc4)C(C)=C1C3(C)C)[C@]1(OC(C)=O)CO[C@@H]1C[C@@H]2O` [PACLITAXEL], the Activity result is “is not a substrate [-]” on Bile salt export pump [1] and “substrate [+]” in data set [2].

B1: Bile salt export pump (Mus musculus) (protein)
chain: T1 sequence (Q9QY30 whole entry)
With B1, the Km in data set [7] was determined as 38.3 µM.
